Assay results from paper PMC6789111, “Crossing the blood-brain-barrier with nanoligand drug carriers self-assembled from a phage display peptide” (Nature Communications, 2019).
Peptide text beside a SMILES is read from it. * marks the point of attachment. 5FAM = O=C1OC2(c3ccc(O)cc3Oc3cc(O)ccc32)c2ccc(C(=O)*)cc21

What was measured:
hCMEC/D3 cells [1] = assay: Cell uptake by flow cytometry; assay type: cell-based, human; conditions: 5 µM, 24 h, 37 °C, flow cytometry (Supplementary Fig. 13)
Protocol: Peptide internalisation was measured by flow cytometry (FACS ArrayTM Cell Analysis, Becton, Dickinson and Company, NJ, USA). Cells (1 × 10^5 cm^−2) were seeded on 24-well plates and grown 1 day at 37 °C and 5% CO2 in order to reach 60–70% confluence. The cells were washed 3 times with pre-heated PBS. The uptake studies were initiated by adding 500 µL of 5 µM fluorescence-labelled peptides (diluted in cell medium containing with different serum concentration). Serum concentration in incubation varied from 5 to 20% (v/v). […] A total of 10,000 cells were analysed by flow cytometry.

RAGE = RAGE silencing with siPORT Amine, Western blot; assay type: cell-based, human; conditions: 28 nM siRNA with siPORT Amine
Protocol: (§1) hCMEC/D3 cells were transfected with anti-TfR siRNA [sense sequence ([NT]) and antisense sequence ([NT])] or anti-RAGE siRNA [sense sequence ([NT]) and antisense sequence [NT]] or control siRNA using siPORT Amine transfection agent, according to the manufacturer' Neofection protocol. Briefly, siPORT Amine transfection reagent (7 μL) was added to serum-free cell medium to a final volume of 100 μL and vortexed. […] The mixture was gently mixed and incubated at room temperature for 20 min. The transfection agent/siRNA complex was added to culture plates containing 2.3 × 10^5 hCMEC/D3 cells in 2.3 mL normal growth medium. The final concentration of siRNA was 28 nM. After 24 h incubation, the medium containing transfection agent/siRNA complex was removed and fresh growth medium was added. After 48 h post transfection, the level of target protein (TfR or RAGE) was determined by Western blotting. […] Uptake was quantified by measuring fluorescence using FACS. Transferrin receptor and RAGE expression level in human cells was determined by Western blot analysis. Briefly, cells were seeded in 75 cm^2-flasks and grown to reach 60-70% confluence. The cells were washed in ice-cold PBS three times and then scraped off the flask and collected by centrifugation. The pelleted cells were lysed for 10 min at room temperature on a shaker (900 rpm) following the ProteoJETTM Mammalian Cell Lysis Reagent protocol. Lysates were spun in a centrifuge at 18,000 × g for 15 min and the supernatant was collected. Equal protein aliquots were resolved by SDS-PAGE, transferred to nitrocellulose membranes using iBot Dry Blotting system (Invitrogen, CA, USA), immunoblotted with primary antibodies (mouse anti-human TfR antibody or rabbit polyclonal to mouse and human RAGE) (1;200 and 1:750, respectively) and detected with HRP-Goat-anti-mouse (or rabbit) IgG (H + L) secondary antibody (1:3000). Tubulin was immunoblotted with mouse anti-human-β-tubulin (1:200) and detected with HRP-Goat-anti-mouse IgG (H + L) secondary antibody (1:3000). These were followed by incubation with Novex® ECL Chemiluminescent Substrate Reagent Kit. The Bands were quantified with ImageJ 1.44p (http://imagej.nih.gov/ij/).

hCMEC/D3 cells [2] = assay: Trypan Blue exclusion test; assay type: cell-based, human; conditions: after receptor down regulation
TfR [3] = assay: TfR silencing by peptide/siRNA nano-assemblies, Western blot; assay type: cell-based, human
Protocol: Transferrin receptor and RAGE expression level in human cells was determined by Western blot analysis. Briefly, cells were seeded in 75 cm^2-flasks and grown to reach 60-70% confluence. The cells were washed in ice-cold PBS three times and then scraped off the flask and collected by centrifugation. The pelleted cells were lysed for 10 min at room temperature on a shaker (900 rpm) following the ProteoJETTM Mammalian Cell Lysis Reagent protocol. Lysates were spun in a centrifuge at 18,000 × g for 15 min and the supernatant was collected. Equal protein aliquots were resolved by SDS-PAGE, transferred to nitrocellulose membranes using iBot Dry Blotting system (Invitrogen, CA, USA), immunoblotted with primary antibodies (mouse anti-human TfR antibody or rabbit polyclonal to mouse and human RAGE) (1;200 and 1:750, respectively) and detected with HRP-Goat-anti-mouse (or rabbit) IgG (H + L) secondary antibody (1:3000). Tubulin was immunoblotted with mouse anti-human-β-tubulin (1:200) and detected with HRP-Goat-anti-mouse IgG (H + L) secondary antibody (1:3000). These were followed by incubation with Novex® ECL Chemiluminescent Substrate Reagent Kit. The Bands were quantified with ImageJ 1.44p (http://imagej.nih.gov/ij/). […] Next, the mixtures were diluted with saline to a final peptide concentration 5 μM for TEM studies. […] After 24 h incubation, the medium was replaced by fresh growth medium. After another 48 h of incubation, the level of the target protein was determined by Western blotting. The results were compared with parallel experiments containing nano-assemblies formed from FAM-CGY and an irrelevant siRNA as well as transfection procedures with complexes formed between siRNA and siPORT Amine transfection agent. Cy3-siRNA uptake was quantified by measuring median cell fluorescence using FACS.

TfR [4] = assay: TfR silencing with siPORT Amine, Western blot; assay type: cell-based, human; conditions: 28 nM siRNA with siPORT Amine
Protocol: as §1

claudin-5 = assay: Claudin-5 silencing, Western blot; assay type: cell-based, human; conditions: siRNA delivered with FAM-CGY (5 µM), 72 h after transfection
Protocol: Peptide/siRNA assemblies were formed by dropwise addition (80–240 nM range) of either Cy3-siRNA or functional anti-TfR siRNA or anti-Claudin-5 siRNA (with the sense and antisense sequences of 5′-[…]tt-3′ and 5′-[…]gc-3′) to 50 µM FAM-CGY in physiological saline and incubated for 30 min. Next, the mixtures were diluted with saline to a final peptide concentration 5 µM for TEM studies. In vitro uptake and silencing experiments were performed in hCMEC/D3 cells. Briefly, peptide/siRNA nano-assemblies (5 µM FAM-CGY and either 8 or 16 or 24 nM functional siRNA, final concentration) were added to 2.3 × 10^5 hCMEC/D3 cells. After 24 h incubation, the medium was replaced by fresh growth medium. After another 48 h of incubation, the level of the target protein was determined by Western blotting. The results were compared with parallel experiments containing nano-assemblies formed from FAM-CGY and an irrelevant siRNA as well as transfection procedures with complexes formed between siRNA and siPORT Amine transfection agent. Cy3-siRNA uptake was quantified by measuring median cell fluorescence using FACS.
Supplementary Fig. 20. […] FAM-CGY (5 µM final concentration)/CLDN5-specific siRNA assemblies effectively down regulates CLDN5 in hCMEC/D3 cells as determined by Western blotting. […] CLDN5 expression was measured 72 h after transfection. […]

IL-1β = assay: ELISA of IL-1β in hippocampus; assay type: in vivo, ICR mice; conditions: 24 h after i.v. (LPS 24 h); Ave.
[5] = Blood count after intravenous injection; assay type: in vivo, ICR mice; conditions: mean ± s.d., n = 3
Excerpt: Supplementary Table 2. Blood count following intravenous injection of FAM-CGY NLCs in free form and complexed with siRNA
Samples WBC RBC HGB HCT MCV MCH MCHC PLT
WBC: white blood cell; RBC: red blood cell count; HGB: haemoglobin; HCT: haematocrit; MCV: mean corpuscular volume; MCH: mean corpuscular haemoglobin; MCHC: mean corpuscular
significance (*p < 0.05). The results are mean ± s.d. (n = 3 animals per group). The experiment was repeated twice with identical results. The siRNA represent BACE-1-specific siRNA. The
final concentration of the peptide conjugate was 10 µM and that of siRNA was 48 nM, based on blood volume calculation equivalent to 6% of the body weight. LPS = lipopolysaccharide.

IL-6 = assay: ELISA of IL-6 in hippocampus; assay type: in vivo, ICR mice; conditions: 24 h after i.v. (LPS 24 h); Ave.
Protocol: After 4, 24 and 72 h post injection, mice were sacrificed and perfused with 10 mL 0.9% (w/v) saline at a rate of 2 mL min^−1.
Hippocampus was dissected out, rinsed in ice-cold PBS thoroughly, weighted and immediately frozen in liquid nitrogen. Tissues were cut into small pieces and homogenized in 1 mL ice-cold PBS with a glass homogeniser and sonicated with an ultrasonic cell disrupter to break the cell membranes. Homogenates were centrifuges for 5 min at 5,000 × g and supernatants were assayed immediately for quantitative determination of TNF-α, IL-6, IL-1β, Iba-1 and GFAP by corresponding ELISA kits, respectively in accordance with manufacturer’s instructions.

Iba-1 = assay: ELISA of Iba-1 in hippocampus; assay type: in vivo, ICR mice; conditions: 24 h after i.v. (LPS 24 h); Ave.
GFAP = assay: ELISA of GFAP in hippocampus; assay type: in vivo, ICR mice; conditions: 24 h after i.v. (LPS 24 h); Ave.
[6] = hCMEC/D3, control siRNA = 100.00, replicate 1

Compound: CC[C@H](C)[C@H](NC(=O)[C@H](CC(N)=O)NC(=O)[C@H](Cc1c[nH]cn1)NC(=O)[C@@H](NC(=O)[C@@H]1CCCN1C(=O)[C@H](CCCNC(=N)N)NC(=O)[C@H](Cc1ccc(O)cc1)NC(=O)CNC(=O)c1ccc2c(c1)C(=O)OC21c2ccc(O)cc2Oc2cc(O)ccc21)C(C)C)C(=O)N[C@@H](CCCNC(=N)N)C(=O)NCC(=O)N[C@@H](Cc1c[nH]cn1)C(=O)N[C@@H](Cc1c[nH]c2ccccc12)C(=O)N[C@@H](C)C(=O)N1CCC[C@H]1C(=O)NCC(=O)O [FAM-GYR] (5FAM-GYRPVHNIRGHWAPG-OH)
- cellular uptake in contrast to FAM-CGY (hCMEC/D3 cells [1]): relatively low

Compound: RAGE siRNA: sense 5′-GGUGGAACCGUAACCUGAtt-3′, antisense 5′-UCAGGGUUACGGUUCCACCag-3′ (sense GGUGGAACCGUAACCUGATT; antisense UCAGGGUUACGGUUCCACCAG; chemistry not given here)
- RAGE expression level (%) (RAGE; [6]): 54.86%
- RAGE expression level (%) (RAGE; Ave.): 53.86%
- RAGE expression level (%) (RAGE; replicate 2): 57.89%
- RAGE expression level (%) (RAGE; replicate 3): 48.82%
- cell viability (hCMEC/D3 cells [2]): > 95%

Compound: TfR siRNA: sense 5′-GGUCAUCAGGAUUGCCUAAtt-3′, antisense 5′-UUAGGCAAUCCUGAUGACCga-3′ (sense GGUCAUCAGGAUUGCCUAATT; antisense UUAGGCAAUCCUGAUGACCGA; chemistry not given here)
- TfR expression leve (% of control) (TfR [3]; 8 nM siRNA, presumably complexed with 5 µM FAM-CGY, hCMEC/D3, 24 h + 48 h, replicate 1): 75.56%
- TfR expression leve (% of control) (TfR [3]; 8 nM siRNA, Ave.): 70.89%
- TfR expression leve (% of control) (TfR [3]; 8 nM siRNA, replicate 2): 65.03%
- TfR expression leve (% of control) (TfR [3]; 8 nM siRNA, replicate 3): 72.08%
- TfR expression leve (% of control) (TfR [3]; 16 nM siRNA, Ave.): 54.45%
- TfR expression leve (% of control) (TfR [3]; 24 nM siRNA, presumably siRNA alone, Ave.): 90.00%
- TfR expression leve (% of control) (TfR [3]; 24 nM siRNA, presumably with siPORT, Ave.): 38.58%
- TfR expression level (%) (TfR [4]; [6]): 30.26%
- TfR expression level (%) (TfR [4]; Ave.): 34.58%
- TfR expression level (%) (TfR [4]; replicate 2): 32.56%
- TfR expression level (%) (TfR [4]; replicate 3): 40.91%
- cell viability (hCMEC/D3 cells [2]): > 95%

Compound: claudin-5-specific siRNA: sense 5′-CCUUAACAGACGGAAUGAAtt-3′, antisense 5′-UUCAUUCCGUCUGUUAAGGgc-3′ (sense CCUUAACAGACGGAAUGAATT; antisense UUCAUUCCGUCUGUUAAGGGC; chemistry not given here)
- claudin-5 expression (claudin-5): downregulation of claudin-5

Compound: lipopolysaccharide from Escherichia coli O55:B5 [LPS]
- IL-1β in hippocampus (Figure 6g) (IL-1β): 36.79
- WBC ([5]; 24 h after i.v. (LPS 200 μg kg−1)): 1.49±0.26 (×109)L-1
- HCT ([5]; 24 h after i.v.): 71.90±6.10%
- HGB ([5]; 24 h after i.v.): 152.25±14.25 gL-1
- MCH ([5]; 24 h after i.v.): 17.45 ± 0.45 pg
- MCHC ([5]; 24 h after i.v.): 211.75±2.63 gL-1
- MCV ([5]; 24 h after i.v.): 82.78 ± 1.23 fL
- PLT ([5]; 24 h after i.v.): 282.45±28.83 (×109)L-1
- RBC ([5]; 24 h after i.v.): 8.72±0.61 (×1012)L-1
- IL-6 in hippocampus (Figure 6f) (IL-6): 9.69
- Iba-1 in hippocampus (Figure 6h) (Iba-1): 1.68
- GFAP in hippocampus (Figure 6i) (GFAP): 289.26
